Measured values taken from PubChem BioAssay (NCI).
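Interpolation was linear, between the two tested concentrations surrounding the appropriate level; five concentrations were tested over 48 hours in 96-well plates. At the GI50, growth is halved. The concentration for full growth arrest is given as TGI.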

Assays:
Assay in all cases: growth of human tumour cells (NCI), 48 h; in the data active = GI50 below about 0.43 µM; inactive = the rest
[1] = system: 786-0 renal
[2] = system: A498 renal
[3] = system: A549 NSCLC
[4] = system: ACHN renal
[5] = system: BT-549 breast
[6] = system: CAKI-1 renal
[7] = system: CCRF-CEM leukemia
[8] = system: COLO 205 colon
[9] = system: DU-145 prostate
[10] = system: HCC-2998 colon
[11] = system: HCT-116 colon
[12] = system: HCT-15 colon
[13] = system: HL-60(TB) leukemia
[14] = system: HOP-62 NSCLC
[15] = system: HOP-92 NSCLC
[16] = system: HS 578T breast
[17] = system: HT29 colon
[18] = system: IGROV1 ovarian
[19] = system: K-562 leukemia
[20] = system: KM12 colon
[21] = system: LOX IMVI melanoma
[22] = system: M14 melanoma
[23] = system: MALME-3M melanoma
[24] = system: MCF7 breast
[25] = system: MDA-MB-231 breast
[26] = system: MDA-MB-435
[27] = system: MOLT-4 leukemia
[28] = system: NCI-H226 lung

NC(CSC(c1ccccc1)(c1ccccc1)c1ccccc1)C(=O)NCC(=O)O (stereo not given)
inactive: GI50 [1] 6.78 µM | GI50 [2] 4.31 µM | GI50 [3] 8 µM | GI50 [4] 18.9 µM | GI50 [5] 10.1 µM | GI50 [6] 37.1 µM | GI50 [7] 3.68 µM | GI50 [8] 3.39 µM | GI50 [9] 18.9 µM | GI50 [10] 2.57 µM | GI50 [11] 3.97 µM | GI50 [12] 4.89 µM | GI50 [13] 2.85 µM | GI50 [14] 8.16 µM | GI50 [15] 5.01 µM | GI50 [16] 3.29 µM | GI50 [17] 22 µM | GI50 [18] 10.7 µM | GI50 [19] 3.19 µM | GI50 [20] 3.96 µM | GI50 [21] 7.66 µM | GI50 [22] 3.73 µM | GI50 [23] 5.3 µM | GI50 [24] 3.87 µM | GI50 [25] 2.65 µM | GI50 [26] 2.38 µM | GI50 [27] 16 µM | GI50 [28] 23.4 µM
22.2 µM: TGI [10]
> 100 µM: TGI [1] | TGI [3] | TGI [4] | TGI [5] | TGI [6] | TGI [7] | TGI [8] | TGI [9] | TGI [11] | TGI [12] | TGI [14] | TGI [15] | TGI [18] | TGI [19] | TGI [21] | TGI [23] | TGI [24]
12 µM: TGI [13]
38.4 µM: TGI [20]
97.6 µM: TGI [17]
25.1 µM: TGI [16]
86.1 µM: TGI [2]
9.42 µM: TGI [25]
23.2 µM: TGI [22]
86.3 µM: TGI [27]
6.8 µM: TGI [26]
